This passage reports IC50 results from patent US20240116985A1, “STAPLED PEPTIDES AND METHODS THEREOF” (priority 2020, published 2024).

The test addresses T1, full-length beta-Catenin (Uniprot ID P35222) (Homo sapiens, UniProt P35222).
T1 construct: 10 nM full-length beta-Catenin (Uniprot ID P35222)
T1 sequence (P35222 1-781): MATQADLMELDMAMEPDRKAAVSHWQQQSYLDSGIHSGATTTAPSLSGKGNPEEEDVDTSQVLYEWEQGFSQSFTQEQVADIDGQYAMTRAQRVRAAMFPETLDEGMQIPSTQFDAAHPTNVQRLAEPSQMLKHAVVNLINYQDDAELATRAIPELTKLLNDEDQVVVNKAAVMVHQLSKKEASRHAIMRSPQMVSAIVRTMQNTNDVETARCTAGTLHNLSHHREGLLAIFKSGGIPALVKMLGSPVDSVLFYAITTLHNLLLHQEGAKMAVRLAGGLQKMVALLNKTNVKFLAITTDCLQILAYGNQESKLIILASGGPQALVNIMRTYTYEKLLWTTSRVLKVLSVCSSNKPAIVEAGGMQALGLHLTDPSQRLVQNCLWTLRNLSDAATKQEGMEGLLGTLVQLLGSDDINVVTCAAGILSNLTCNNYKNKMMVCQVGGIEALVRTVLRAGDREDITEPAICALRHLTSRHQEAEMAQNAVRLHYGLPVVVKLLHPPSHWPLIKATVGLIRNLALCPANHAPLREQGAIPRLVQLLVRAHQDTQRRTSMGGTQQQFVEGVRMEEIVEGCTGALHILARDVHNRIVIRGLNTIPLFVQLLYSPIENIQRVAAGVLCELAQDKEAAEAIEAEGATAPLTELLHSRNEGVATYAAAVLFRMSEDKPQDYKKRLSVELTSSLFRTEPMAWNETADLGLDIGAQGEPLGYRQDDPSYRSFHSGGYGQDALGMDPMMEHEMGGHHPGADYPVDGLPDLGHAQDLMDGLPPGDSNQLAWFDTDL
In words: Fluorescence polarization IC50 (beta-catenin / 5FAM-TCF4 10-53 competition). It is filed as binding. Particulars: fluorescence polarization; read-out: beta-Catenin FP IC50.

One may read the IC50 as the concentration at which inhibition is half-maximal.

With `CC(=O)N1CCC[C@]12CC=CCCCC1(CCCC=CCCCOC(=O)N3CC[C@@](C(=O)N[C@@H](Cc4ccsc4)C(=O)N[C@@H](Cc4csc5ccccc45)C(=O)N[C@@H](CCC(N)=O)C(N)=O)(C3)NC(=O)[C@H](CC(C)C)NC(=O)[C@H](Cn3cc(CN4CCOCC4)nn3)NC(=O)[C@H](C)NC(=O)[C@H](C)NC(=O)[C@H](CN(CC(=O)O)CC(F)(F)F)NC(=O)[C@H](CC(=O)O)NC1=O)NC(=O)[C@H](CC(C)(C)C)NC(=O)[C@H](CC(=O)O)NC2=O` (stereo partly drawn) [I-1858, Ac-PL3-Asp-Npg-B5-Asp-TfeGA-Ala-Ala-[MorphCH2]TriAzDap-Leu-PyrS2-3Thi-BztA-Gln-NH2], the IC50 worked out at 1110 nM.
Take `CC(=O)N1CCC[C@]12CC=CCCCC1(CCCC=CCCCOC(=O)N3CC[C@@](C(=O)N[C@@H](Cc4ccsc4)C(=O)N[C@@H](Cc4csc5ccccc45)C(=O)N[C@@H](CCC(N)=O)C(N)=O)(C3)NC(=O)[C@H](CC(C)C)NC(=O)[C@H](Cn3cc(CN4CCOCC4)nn3)NC(=O)[C@H](C)NC(=O)[C@H](C)NC(=O)[C@H](CN(CC(=O)O)CC(F)(F)F)NC(=O)[C@H](CC(=O)O)NC1=O)NC(=O)[C@H](CC(C)(C)C)NC(=O)[C@H](CC(=O)O)NC2=O` (stereo partly drawn) [I-1859, Ac-PL3-Asp-Npg-B5-Asp-TfeGA-Ala-Ala-[MorphCH2]TriAzDap-Leu-PyrS2-3Thi-BztA-Gln-NH2]: the IC50 came to 1110 nM.
`CC(=O)N1CCC[C@]12CC=CCCCC1(CCCC=CCCCOC(=O)N3CC[C@@](C(=O)N[C@@H](Cc4ccsc4)C(=O)N[C@@H](Cc4csc5ccccc45)C(=O)N[C@@H](CCC(N)=O)C(N)=O)(C3)NC(=O)[C@H](CC(C)C)NC(=O)[C@H](Cn3cc(CN4CCS(=O)(=O)CC4)nn3)NC(=O)[C@H](C)NC(=O)[C@H](C)NC(=O)[C@H](CN(CC(=O)O)CC(F)(F)F)NC(=O)[C@H](CC(=O)O)NC1=O)NC(=O)[C@H](CC(C)(C)C)NC(=O)[C@H](CC(=O)O)NC2=O` (stereo partly drawn) [I-1860, Ac-PL3-Asp-Npg-B5-Asp-TfeGA-Ala-Ala-[SO2MorphCH2]TriAzDap-Leu-PyrS2-3Thi-BztA-Gln-NH2]: the IC50 came out at 512 nM.
On to `CC(=O)N1CCC[C@]12CC=CCCCC1(CCCC=CCCCOC(=O)N3CC[C@@](C(=O)N[C@@H](Cc4ccsc4)C(=O)N[C@@H](Cc4csc5ccccc45)C(=O)N[C@@H](CCC(N)=O)C(N)=O)(C3)NC(=O)[C@H](Cn3cc(CN4CCNCC4)nn3)NC(=O)[C@H](Cc3ccccc3)NC(=O)[C@H](C)NC(=O)[C@H](C)NC(=O)[C@H](CN(CC(=O)O)CC(F)(F)F)NC(=O)[C@H](CC(=O)O)NC1=O)NC(=O)[C@H](CC(C)(C)C)NC(=O)[C@H](CC(=O)O)NC2=O` (stereo partly drawn) [I-1863, Ac-PL3-Asp-Npg-B5-Asp-TfeGA-Ala-Ala-Phe-[CH2Ppz]TriAzDap-PyrS2-3Thi-BztA-Gln-NH2], for which the IC50 was found to be 10 nM.
Consider `CC(=O)N1CCC[C@]12CC=CCCCC1(CCCC=CCCCOC(=O)N3CC[C@@](C(=O)N[C@@H](Cc4ccsc4)C(=O)N[C@@H](Cc4csc5ccccc45)C(=O)N[C@@H](CCC(N)=O)C(N)=O)(C3)NC(=O)[C@H](Cn3cc(CN4CCS(=O)(=O)CC4)nn3)NC(=O)[C@H](Cc3ccccc3)NC(=O)[C@H](C)NC(=O)[C@H](C)NC(=O)[C@H](CN(CC(=O)O)CC(F)(F)F)NC(=O)[C@H](CC(=O)O)NC1=O)NC(=O)[C@H](CC(C)(C)C)NC(=O)[C@H](CC(=O)O)NC2=O` (stereo partly drawn) [I-1868, Ac-PL3-Asp-Npg-B5-Asp-TfeGA-Ala-Ala-Phe-[SO2MorphCH2]TriAzDap-PyrS2-3Thi-BztA-Gln-NH2], for which the IC50 was 12 nM.
For `CC(=O)N1CCC[C@]12CC=CCCCC1(CCCC=CCCCOC(=O)N3CC[C@@](C(=O)N[C@@H](Cc4ccsc4)C(=O)N[C@@H](Cc4csc5ccccc45)C(=O)N[C@@H](CCC(N)=O)C(N)=O)(C3)NC(=O)[C@H](Cn3cc(CN4CCS(=O)(=O)CC4)nn3)NC(=O)[C@H](Cc3ccccc3)NC(=O)[C@H](C)NC(=O)[C@H](C)NC(=O)[C@H](CN(CC(=O)O)CC(F)(F)F)NC(=O)[C@H](CC(=O)O)NC1=O)NC(=O)[C@H](CC(C)(C)C)NC(=O)[C@H](CC(=O)O)NC2=O` (stereo partly drawn) [I-1869, Ac-PL3-Asp-Npg-B5-Asp-TfeGA-Ala-Ala-Phe-[SO2MorphCH2]TriAzDap-PyrS2-3Thi-BztA-Gln-NH2], the IC50 turned out to be 12 nM.
Next, `CC(=O)N1CCC[C@]12CC=CCCCC1(CCCC=CCCCOC(=O)N3CC[C@@](C(=O)N[C@@H](Cc4ccsc4)C(=O)N[C@@H](Cc4cccc5ccccc45)C(=O)N[C@@H](CCC(N)=O)C(N)=O)(C3)NC(=O)[C@H](CC(N)=O)NC(=O)[C@H](Cc3ccccc3)NC(=O)[C@H](C)NC(=O)[C@H](C)NC(=O)[C@H]([C@@H](C)O)NC(=O)[C@H](CC(N)=O)NC1=O)NC(=O)[C@H](CC(C)(C)C)NC(=O)[C@H](CC(=O)O)NC2=O` (stereo partly drawn) [I-1870, Ac-PL3-Asp-Npg-B5-Asn-Thr-Ala-Ala-Phe-Asn-PyrS2-3Thi-1NapA-Gln-NH2]: 1520 nM.
Next, `CC(=O)N1CCC[C@]12CC=CCCCC1(CCCC=CCCCOC(=O)N3CC[C@@](C(=O)N[C@@H](Cc4ccsc4)C(=O)N[C@@H](Cc4cccc5ccccc45)C(=O)N[C@@H](CCC(N)=O)C(N)=O)(C3)NC(=O)[C@H](CC(N)=O)NC(=O)[C@H](Cc3ccccc3)NC(=O)[C@H](C)NC(=O)[C@H](C)NC(=O)[C@H]([C@@H](C)O)NC(=O)[C@H](CC(N)=O)NC1=O)NC(=O)[C@H](CC(C)(C)C)NC(=O)[C@H](CC(=O)O)NC2=O` (stereo partly drawn) [I-1871, Ac-PL3-Asp-Npg-B5-Asn-Thr-Ala-Ala-Phe-Asn-PyrS2-3Thi-1NapA-Gln-NH2]: 1770 nM.
Next, `CC(=O)N1CCC[C@]12CC=CCCCC1(CCCC=CCCCOC(=O)N3CC[C@@](C(=O)N[C@@H](Cc4ccsc4)C(=O)N[C@@H](Cc4ccc5ccccc5c4)C(=O)N[C@@H](CCC(N)=O)C(N)=O)(C3)NC(=O)[C@H](CC(N)=O)NC(=O)[C@H](Cc3ccccc3)NC(=O)[C@H](C)NC(=O)[C@H](C)NC(=O)[C@H]([C@@H](C)O)NC(=O)[C@H](CC(N)=O)NC1=O)NC(=O)[C@H](CC(C)(C)C)NC(=O)[C@H](CC(=O)O)NC2=O` (stereo partly drawn) [I-1873, Ac-PL3-Asp-Npg-B5-Asn-Thr-Ala-Ala-Phe-Asn-PyrS2-3Thi-2NapA-Gln-NH2]: 1480 nM.
Take `CC(=O)N1CCC[C@]12CC=CCCCC1(CCCC=CCCCOC(=O)N3CC[C@@](C(=O)N[C@@H](Cc4ccsc4)C(=O)N[C@@H](Cc4c[nH]c5ccccc45)C(=O)N[C@@H](CCC(N)=O)C(N)=O)(C3)NC(=O)[C@H](CC(N)=O)NC(=O)[C@H](Cc3ccccc3)NC(=O)[C@H](C)NC(=O)[C@H](C)NC(=O)[C@H]([C@@H](C)O)NC(=O)[C@H](CC(N)=O)NC1=O)NC(=O)[C@H](CC(C)(C)C)NC(=O)[C@H](CC(=O)O)NC2=O` (stereo partly drawn) [I-1876, Ac-PL3-Asp-Npg-B5-Asn-Thr-Ala-Ala-Phe-Asn-PyrS2-3Thi-Trp-Gln-NH2]: the IC50 worked out at 1340 nM.
Next, `CC(=O)N1CCC[C@]12CC=CCCCC1(CCCC=CCCCOC(=O)N3CC[C@@](C(=O)N[C@@H](Cc4ccsc4)C(=O)N[C@@H](Cc4c[nH]c5ccccc45)C(=O)N[C@@H](CCC(N)=O)C(N)=O)(C3)NC(=O)[C@H](CC(N)=O)NC(=O)[C@H](Cc3ccccc3)NC(=O)[C@H](C)NC(=O)[C@H](C)NC(=O)[C@H]([C@@H](C)O)NC(=O)[C@H](CC(N)=O)NC1=O)NC(=O)[C@H](CC(C)(C)C)NC(=O)[C@H](CC(=O)O)NC2=O` (stereo partly drawn) [I-1877, Ac-PL3-Asp-Npg-B5-Asn-Thr-Ala-Ala-Phe-Asn-PyrS2-3Thi-Trp-Gln-NH2]: 1520 nM; `CC(=O)N1CCC[C@]12CC=CCCCC1(CCCC=CCCCOC(=O)N3CC[C@@](C(=O)N[C@@H](Cc4ccsc4)C(=O)N[C@@H](Cc4csc5ccccc45)C(=O)N[C@H](C(N)=O)C(C)C)(C3)NC(=O)[C@H](CC(N)=O)NC(=O)[C@H](Cc3ccccc3)NC(=O)[C@H](C)NC(=O)[C@H](C)NC(=O)[C@H]([C@@H](C)O)NC(=O)[C@H](CC(N)=O)NC1=O)NC(=O)[C@H](CC(C)(C)C)NC(=O)[C@H](CC(=O)O)NC2=O` (stereo partly drawn) [I-1878, Ac-PL3-Asp-Npg-B5-Asn-Thr-Ala-Ala-Phe-Asn-PyrS2-3Thi-BztA-Val-NH2]: 458 nM.
For the molecule `CC(=O)N1CCC[C@]12CC=CCCCC1(CCCC=CCCCOC(=O)N3CC[C@@](C(=O)N[C@@H](Cc4ccsc4)C(=O)N[C@@H](Cc4csc5ccccc45)C(=O)N[C@H](C(N)=O)C(C)C)(C3)NC(=O)[C@H](CC(N)=O)NC(=O)[C@H](Cc3ccccc3)NC(=O)[C@H](C)NC(=O)[C@H](C)NC(=O)[C@H]([C@@H](C)O)NC(=O)[C@H](CC(N)=O)NC1=O)NC(=O)[C@H](CC(C)(C)C)NC(=O)[C@H](CC(=O)O)NC2=O` (stereo partly drawn) [I-1879, Ac-PL3-Asp-Npg-B5-Asn-Thr-Ala-Ala-Phe-Asn-PyrS2-3Thi-BztA-Val-NH2], the IC50 came to 567 nM.
Take `CC(=O)N1CCC[C@]12CC=CCCCC1(CCCC=CCCCOC(=O)N3CC[C@@](C(=O)N[C@@H](Cc4ccsc4)C(=O)N[C@@H](Cc4csc5ccccc45)C(=O)N[C@@H](CC(C)C)C(N)=O)(C3)NC(=O)[C@H](CC(N)=O)NC(=O)[C@H](Cc3ccccc3)NC(=O)[C@H](C)NC(=O)[C@H](C)NC(=O)[C@H]([C@@H](C)O)NC(=O)[C@H](CC(N)=O)NC1=O)NC(=O)[C@H](CC(C)(C)C)NC(=O)[C@H](CC(=O)O)NC2=O` (stereo partly drawn) [I-1880, Ac-PL3-Asp-Npg-B5-Asn-Thr-Ala-Ala-Phe-Asn-PyrS2-3Thi-BztA-Leu-NH2]: the IC50 worked out at 868 nM.
